US4925979A, “Flavone carboxylic acid derivatives” (Shionogi & Co., Ltd., priority 1986, dated 1990)
Read-outs that look alike come from different tables or passages of the source.

What was measured:
[1] = as seen from the therapeutic index; cited from earlier work
[2] = tested on: human acute promyelocytic leukemia cells HL 60; assay: Differentiation of HL-60 cells: NBT reduction (counting formazan-containing cells), ED50; assay type: cell-based; settings: for activity (in words): HL-60 differentiation, Table 1; for EC50: Homo sapiens, read-out: ED50 (effective dose which causes differentiation of 50% of the cultured cells)
Experimental: The test of the activities of the compounds of this invention has been conducted by measuring the concentration required for inducing the differentiation of human acute promyelocytic leukemia cells HL 60, according to the methods described in detail hereinafter.
(§1) The HL-60 cell are cultured in plastic flasks in RPMI 1640 medium supplemented with 5% heat inactivated fetal calf serum and antibiotics (penicillin G and streptomycin). The cells (3×10^4 /ml) are cultured with a compound of the present invention for 4 days. The cells are fixed and stained with Wright-Giemsa to examine the morphological changes of the nuclei.
The biochemical activity of cells treated with the compound is measured as follows:
The cells after 5 days incubation are centrifuged and diluted with RPMI 1640 medium, supplemented with 5% fetal calf serum to provide a definite number of the cells. To the diluted cell suspension are then added 200 ng/ml of 12-o-tetradodecanoylphorbol-13 -acetate (TPA) and the resulting culture medium is then incubated for 20 minutes at 37° C. in the presence of 0.1% of NBT. Thus, the mature differentiated cells containing blue-black formazan is counted by microscopy, so that the ratio of the cells having the ability to reduce NBT, to total cells, can be calculated.
(§2) The biological test was performed according to the method previously described, using the leukemia cells HL 60. The morphological changes were observed under a light microscope. Biochemical activity reducing nitro-blue tetrazolium is assayed by counting the number of cells which contain formazan. The specific activity, ED50 (the concentration which causes the differentiation of 50% of the total cells, represented by M), was calculated and shown in the Table. As a positive control for comparison, all trans retinoic acid was used.

[3] = tested on: chemically-induced papillomas of the skin of mice; settings: minute quantities; cited from earlier work
[4] = tested on: chemically-induced skin carcinomas in mice; settings: cited from earlier work
[5] = tested on: human acute promyelocytic leukemia cells (HL-60); assay: Differentiation of HL-60 cells: morphological changes of nuclei (Wright-Giemsa); assay type: cell-based; settings: HL-60, 4 days culture
Experimental: as §1, §2

For CCOC(=O)c1ccc(/C=C(\C)c2ccc3c(c2)C(C)(C)CCC3(C)C)cc1 [Artinoid], the “activity relative to Retinoic acid” value [1] is listed as “ten times as strong”.
In the case of CC1(C)CCC(C)(C)c2cc3c(=O)cc(-c4ccc(C(=O)O)cc4)oc3cc21 [No. 5, 4-(6,7,8,9-tetrahydro-6,6,9,9,-tetramethyl-4H-4-oxo-naphtho[2,3-b]pyran-2-yl) benzoic acid], the “activity (in words)” value [2] is reported as “one of the strongest compounds”.
For CC1(C)CCC(C)(C)c2cc(C(=O)C=C(O)c3ccc(C(=O)O)cc3)c(O)cc21 [No. 8, 4-[1-hydroxy-3-(3-hydroxy-5,6,7,8-tetrahydro-5,5,8,8-tetra-methyl-2-naphthalenyl)-3-oxo-1-propenyl] benzoic acid], the “activity (in words)” value [2] was “most active compound”.
For CCOC(=O)c1ccc(/C=C(\C)c2ccc3c(c2)C(C)(C)CCC3(C)C)cc1 [Ro 13 6298], the regression of papillomas [3] is listed as “regression” and the “therapeutic influence on skin carcinomas” value [4] is listed as “therapeutic influence”.
With O=C(O)c1ccc(-c2cc(=O)c3ccccc3o2)cc1 [compound 1] the “ED50 (effective dose which causes differentiation of 50% of the cultured cells)” value ([2]; HL-60 cells) was “inactive (10^-5)”.
For CC(C)(C)c1ccc2c(=O)cc(-c3ccc(C(=O)O)cc3)oc2c1 [compound 2], the EC50 ([2]; 96 h, HL-60 cells) was 210 nM.
For COC(=O)c1ccc(-c2cc(=O)c3cc4c(cc3o2)C(C)(C)CCC4(C)C)cc1 [compound 4], the EC50 ([2]; 96 h, HL-60 cells) was 0.51 nM.
Work on CC1(C)CCC(C)(C)c2cc3c(=O)cc(-c4ccc(C(=O)O)cc4)oc3cc21 [compound 5] yielded an EC50 ([2]; 96 h, HL-60 cells) of 0.063 nM.
CC1(C)CCC(C)(C)c2cc3c(=O)c(O)c(-c4ccc(C(=O)O)cc4)oc3cc21 [compound 6] gave an EC50 ([2]; 96 h, HL-60 cells) of 1.2 nM.
Compound CC1(C)CCC(C)(C)c2cc(C(=O)C=Cc3ccc(C(=O)O)cc3)c(O)cc21 [compound 7] has an EC50 ([2]; 96 h, HL-60 cells) of 0.1 nM.
In the case of CC1(C)CCC(C)(C)c2cc(C(=O)C=C(O)c3ccc(C(=O)O)cc3)c(O)cc21 [compound 8], the EC50 ([2]; 96 h, HL-60 cells) is reported as 0.091 nM.
CC(C)(C)c1ccc(C(=O)C=C(O)c2ccc(C(=O)O)cc2)c(O)c1 [compound 9] showed an EC50 ([2]; 96 h, HL-60 cells) of 930 nM.
For CC1=C(/C=C/C(C)=C/C=C/C(C)=C/C(=O)O)C(C)(C)CCC1 [retinoic acid, all trans retinoic acid, reference compound], the EC50 ([2]; HL-60, 96 h) was 4.1 nM and the “differentiation to mature granulocytes” value [5] was “differentiated to mature granulocytes”.
